Molecules are shown by their SMILES. Read-outs that look alike come from different tables or passages of the source.

The IC50 is the point on the concentration scale where inhibition reaches its midpoint. The term solubility denotes how much of the substance goes into solution per volume. The term Papp A→B denotes the apparent permeability from the apical to the basolateral side of a cell layer. Read a low Papp A→B as poor permeation. For orientation: Papp B→A means the apparent permeability from the basolateral to the apical side of a cell layer.

The test system of one data set is IL-2 pSTAT5 (JAK1/JAK3). Description: IL-2 pSTAT5 (JAK1/JAK3) cellular assay (AlphaLISA, PBMCs). Type of data set: cell-based. Conditions: PBMC, IL-2 at 5 ng/mL. As to the method: The AlphaLISA assay (based on Alpha Technology from PerkinElmer) was performed by first plating freshly thawed PBMCs (Biological Specialty Corporation) in 384-well plates at 30,000 cells per 4 μL per well in HBSS (Hanks' Balanced Salt Solution) containing 0.1% IgG (immunoglobulin G)-free, protease-free BSA (bovine serum albumin) (Jackson ImmunoResearch Cat. No. 001-000-161). The cells were then treated with 2 μL/well of compounds diluted in DMSO at half-log titrated concentrations, with a highest test concentration of 10 μM and 0.5% final DMSO concentration, for thirty minutes at 37° C. […] Compound IC50 was calculated by nonlinear regression, sigmoidal dose response analysis of the half-log dilution titration curve of the compound concentration vs. Alpha signal. The acronym “Alpha” stands for amplified luminescent proximity homogeneous assay; the Alpha signal is a luminescent/fluorescent signal.
A general note: In Alpha technology, singlet oxygen from a donor bead excites a nearby acceptor bead.

Data set [1] is described as follows: Solubility assays in simulated gastric and simulated intestinal fluids. Type of data set: physicochemical. Conditions: thermodynamic from solid, 2-5 days. Here is the method:
Test compounds were dissolved in DMSO at a concentration of 10 mM. The test compounds were dispensed (20 μL) into Nunc 1-mL-96-Deep-Well-PP plates, and the DMSO was evaporated via nitrogen blow down from a TurboVap 96 for 6 hours or until a dry residue was produced. Then, 400 μL of solubility media was added to the well containing the dry solid. […] After the incubation period, the samples were filtered through an AcroPrep 1-mL-96-Filter plate into a new 2-mL-96-Deep-Well-PP plate, and the supernatants were quantified by UV-HPLC using a 3-point calibration ranging from 0.004-0.55 mM. The solubility for each compound was calculated from the following equation: […] Solubilities are reported as long as the compound under study was sufficiently stable to complete the corresponding solubility determination.

A further data set has as its system IFNα pSTAT4 (JAK1/TYK2). In words: IFNα pSTAT4 (JAK1/TYK2) cellular assay (AlphaLISA, PBMCs). The note with it: PBMC, IFNα at 4 ng/mL. Type of data set: cell-based. Here is the method:
The AlphaLISA assay (based on Alpha Technology from PerkinElmer) was performed by first plating freshly thawed PBMCs (Biological Specialty Corporation) in 384-well plates at 100,000 cells per 6 μL per well in DMEM (Dulbecco's Modified Eagle Medium) containing 10% FBS (fetal bovine serum) and 1,000 I.U./mL penicillin and 1,000 μg/mL streptomycin. The cells were then treated with 2 μL/well of compounds diluted in DMSO at half-log titrated concentrations, with a highest test concentration of 10 μM and 0.5% final DMSO concentration, for thirty minutes at 37° C. Next, the cells were stimulated with 2 μL/well of IFNα (PBL Assay Science Cat. No. 11101-2) at 4 ng/mL for thirty minutes at 37° C. The cellular reactions were terminated by the addition of 2 μL/well of lysis buffer (PerkinElmer Cat. No. ALSU-PST4-A10K) followed by an incubation of five minutes at room temperature. 4 μL/well of acceptor mix (PerkinElmer Cat. No. ALSU-PST4-A10K) was added to the cells and incubated in the dark for one hour at room temperature. Then, 4 μL/well of donor mix (PerkinElmer Cat. No. ALSU-PST4-A10K) was added to the cells and incubated in the dark overnight at room temperature. Finally, the plates were read on a PerkinElmer EnVision for detection of the time-resolved fluorescence signal. The percentage of IFNα-dependent pSTAT4 inhibition was determined at the compound test concentrations; and for each compound, a dose curve was generated and the IC50 was calculated. Compound IC50 was calculated by nonlinear regression, sigmoidal dose response analysis of the half-log dilution titration curve of the compound concentration vs. Alpha signal. The term “Alpha” is defined in the immediately preceding cellular assay description.

Another data set relates to P-gp (MDR1). Description: MDCK-MDR1 permeability assay. Type of data set: in vitro ADME. Conditions: dog. As to the method:
Permeability measurements were conducted according to the Cyprotex protocol using the MDCK-MDR1 cell line obtained from the NIH (Rockville, Md., USA). Cells between passage numbers 6-30 were seeded onto a Multiscreen Plate™ (Millipore) at a cell density of 3.4×10^5 cells/cm^2 and cultured for three days before permeability studies were conducted. The cells in this assay form a cohesive sheet of a single cell layer filing the surface area of the culture dish, also known as a confluent monolayer, and on day four the test compound was added to the apical side of the membrane and the transport of the compound across the monolayer was monitored over a time period of 60 min.
Test compounds were dissolved in DMSO at a concentration of 10 mM. The dosing solutions were prepared by diluting test compound with assay buffer (Hanks Balanced Salt Solution), pH 7.4, at a final concentration of 5 μM. For assessment of apical to basolateral (“A-B”) permeability, buffer was removed from the apical compartment and replaced with test compound dosing solution with or without the permeability glycoprotein (“PgP”, “P-gP”, “Pgp” or “P-gp”) inhibitor elacridar (2 μM). For assessment of basolateral to apical (“B-A”) permeability, buffer was removed from the companion plate and replaced with test compound dosing solution. Incubations were carried out in duplicate at 37° C. in an atmosphere of 5% CO2 with a relative humidity of 95%. Each assay included the reference markers propranolol (high permeability) and prazosin (PgP substrate). After incubation for 60 minutes, apical and basolateral samples were diluted and test compounds quantified by LC/MS/MS using an 8-point calibration in the range 0.0039 to 3 μM with appropriate dilution of the samples (receiver dilution factor=1; donor and C0 dilution factor=10). The permeability coefficient (Papp) for each compound was calculated from the following equation: Papp=(dQ/dt)/(C0×S), where dQ/dt is the rate of permeation of the drug across the cells, C0 is the donor compartment concentration at time zero, and S is the area of the cell monolayer.
The second and third columns in Table 7 show the values of Papp(A-B) for the apical-to-basolateral compound transport without (second column) and with a P-gp inhibitor (third column, noted as P^eapp(A-B)) that was elacridar. Papp(A-B) gives an indication of permeation extent across the cells in this assay, which is envisaged to model the transcellular transport across Pgp-expressing cells, such as Pgp-expressing gastrointestinal tract cells. P^eapp(A-B) values (Papp(A-B) in the presence of the P-gp inhibitor) given in column 3 are determined to confirm the role of P-gp in the compound efflux. […] Test compound efflux ratios are given in the fifth column of Table 7 as Papp(B-A)/Papp(A-B) by using the corresponding permeability coefficient values from the fourth and second columns in the same table.

Take `N#CC[C@H]1CC[C@H](n2c(CC(=O)NCC3(O)CC3)nc3cnc4[nH]ccc4c32)CC1` [Ex. 85, 2-(1-((1r,4r)-4-(Cyanomethyl)cyclohexyl)-1,6-dihydroimidazo[4,5-d]pyrrolo[2,3-b]pyridin-2-yl)-N-((1-hydroxycyclopropyl)methyl)acetamide]: the half-inhibitory concentration (IC50) in the data set with IL-2 pSTAT5 (JAK1/JAK3) turned out to be 13.9 nM; in the data set on IFNα pSTAT4 (JAK1/TYK2), 81.4 nM. For the same molecule, the solubility in data set [1] (fassif, simulated intestinal fluid, fasted state pH 6.5, ambient temperature, read-out: SIF solubility) was more than 400 µM; in data set [1] (simulated gastric fluid, ambient temperature, read-out: SGF solubility), more than 400 µM. The Papp A→B at 60 min, 5 μM in the data set on P-gp (MDR1) (MDCK-MDR1, pH 7.4, @ 5 μM, apical to basolateral, without P-gp inhibitor) was less than 0.5 ×10⁻⁶ cm/s. This molecule also showed an apparent permeability from basolateral to apical (Papp B→A) at 60 min, 5 μM in the data set on P-gp (MDR1) (MDCK-MDR1, pH 7.4, @ 5 μM, basolateral to apical) of 1.1 ×10⁻⁶ cm/s. The efflux ratio at 60 min, 5 μM in the data set on P-gp (MDR1) (MDCK-MDR1, pH 7.4, MDCK-MDR1, 5 μM, read-out: Papp(B-A)/Papp(A-B) (efflux ratio)) was more than 2.2.

Values taken from patent US10981911B2, “Imidazopyrrolopyridine as inhibitors of the JAK family of kinases” (Janssen Pharmaceutica NV, priority 2016, dated 2021).
